{
  "source": "patent US20110054033A1",
  "about": "“METHODS OF USING ABSCISIC ACID FOR AMELIORATING HYPERTENSION AND VASCULAR INFLAMMATION” (Virginia Tech Intellectual Properties, Inc., priority 2009, published 2011)",
  "key": {"15-lipoxygenase (15-LOX)": {"test_system": "15-lipoxygenase (15-LOX)", "test": "Aortic gene expression by real-time RT-PCR: 15-LOX", "format": "in vivo, mice", "conditions": "day 84, ratio to β-actin", "experimental": "FIG. 4 are photos and graphs showing aortas collected on day 84 of dietary intervention. Representative photomicrographs (100×) of aortic root specimens from (A) control and (B) ABA-fed mice. (C) Analysis of lumenal areas and (D) tunica media areas were performed with aortic cross-sections using Image Pro Plus software. (E) Aortic thickness was analyzed as a ratio of the intima to the media. Gene expression in the aorta of (F) endothelial nitric oxide synthase (eNOS) and (G) 15-lipoxygenase (15-LOX) were measured as a ratio to the house-keeping gene β-actin. Data were analyzed as a completely randomized design.\nTotal RNA was isolated from aortas using the RNA isolation Minikit (Qiagen) according to the manufacturer's instructions. Total RNA (1 μg) was used to generate a complementary DNA (cDNA) template using the iScript cDNA Synthesis Kit (Bio-Rad, Hercules, Calif.). […] Each gene amplicon was purified with the MiniElute PCR Purification Kit (Qiagen) and quantitated on an agarose gel by using a DNA mass ladder (Promega). […]\n(§1) Complementary DNA (cDNA) concentrations for genes of interest were examined by real-time quantitative PCR using an iCycler IQ System and the iQ SYBR green supermix (Bio-Rad). […] Results are presented as a starting quantity of target cDNA (picograms) per microgram of total RNA. […]"}, "[1]": {"test_system": "vascular cell adhesion molecule 1 (VCAM-1)", "test": "Aortic gene expression by real-time RT-PCR: VCAM-1", "format": "in vivo, mice", "conditions": "P=0.07", "experimental": "FIG. 6 are graphs showing that ABA decreases immune cell infiltration in aortas of ApoE−/− mice and reduces pro-inflammatory gene expression. ApoE −/− mice were fed high fat diets created with or without 100 mg/kg diet racemic abscisic acid (ABA). (A) Infiltration of F4/80^+CD11b^+ macrophages and CD4^+ T-cells into the aorta were assessed with flow cytometry. Gene expression in the aorta of pro-inflammatory markers (B) vascular cell adhesion molecule 1 (VCAM-1), (C) monocyte chemoattractant protein 1 (MCP-1), (D) E-selectin, (F) peroxisome proliferator-activated receptor γ (PPAR γ), and (G) CD36 were measured as a ratio to the housekeeping gene β-actin. (H) MCP-1 protein concentrations (pg/mL) were measured by ELISA. Data were analyzed as a completely randomized design.\nTotal RNA was isolated from aortas using the RNA isolation Minikit (Qiagen) according to the manufacturer's instructions. […] Each gene amplicon was purified with the MiniElute PCR Purification Kit (Qiagen) and quantitated on an agarose gel by using a DNA mass ladder (Promega). […]\nas §1"}, "eNOS": {"test_system": "eNOS", "test": "eNOS mRNA expression in HAECs by real time PCR", "format": "cell-based, human", "conditions": "10 μM ABA, 24 hours, P<0.02"}},
  "data": [
    {"compound": "CC1=CC(=O)CC(C)(C)C1(O)/C=C/C(C)=C\\C(=O)O", "note": "(racemic) [ABA, abscisic acid]", "values": [
      {"measurement": "Aortic expression of 15-lipoxygenase mRNA vs control", "setting": "15-lipoxygenase (15-LOX)", "result": "significantly elevated"},
      {"measurement": "VCAM-1 mRNA expression in the aortic roots vs control", "setting": "[1]", "result": "reduced, though not to statistical significance"},
      {"measurement": "eNOS mRNA levels vs vehicle", "setting": "eNOS", "result": "significantly (P<0.02) increased"}
    ]}
  ]
}
